Source: PubChem BioAssay (NCI)
Where “and” joins values, the source holds several entries; their conditions need not be identical. Equal values may be shown once.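 All cell lines were grown in 96-well plates and treated with compound for 48 hours. GI50: concentration for 50% inhibition of growth. TGI is the concentration that stops growth completely.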

Tests used:
Assay in all cases: NCI-60 cell line screen, 48 h
A549 NSCLC = system: A549 NSCLC
IGROV1 ovarian = system: IGROV1 ovarian
K-562 leukemia = system: K-562 leukemia
OVCAR-4 ovarian = system: OVCAR-4 ovarian
SF-268 CNS = system: SF-268 CNS
SK-MEL-28 melanoma = system: SK-MEL-28 melanoma
SR leukemia = system: SR leukemia
HS 578T breast = system: HS 578T breast
MDA-MB-231 breast = system: MDA-MB-231 breast
NCI/ADR-RES ovarian = system: NCI/ADR-RES ovarian

Row | Compound | TGI (A549 NSCLC) | TGI (IGROV1 ovarian) | TGI (K-562 leukemia) | TGI (OVCAR-4 ovarian) | TGI (SF-268 CNS) | TGI (SK-MEL-28 melanoma) | TGI (SR leukemia) | TGI (HS 578T breast) | TGI (MDA-MB-231 breast) | TGI (NCI/ADR-RES ovarian) | GI50 (A549 NSCLC) [µM] | GI50 (HS 578T breast) [nM] | GI50 (IGROV1 ovarian) [nM] | GI50 (K-562 leukemia) [nM] | GI50 (MDA-MB-231 breast) [µM] | GI50 (NCI/ADR-RES ovarian) [µM] | GI50 (OVCAR-4 ovarian) [µM] | GI50 (SF-268 CNS) [µM] | GI50 (SK-MEL-28 melanoma) [µM] | GI50 (SR leukemia) [nM]
1 | CC1CCN(c2cc(-c3cc4ccccc4o3)oc(=O)c2C#N)CC1 | > 100 µM | > 100 µM | > 100 µM | > 100 µM | > 100 µM | > 100 µM | > 100 µM | – | – | – | – | – | – | – | – | – | – | – | – | –
2 | CC1=C2CC(C)(C)CC(=O)C2(C)CCC1=O (stereo unspecified) | > 100 µM | > 100 µM | > 100 µM | > 100 µM | > 100 µM | > 100 µM | > 100 µM | > 100 µM | > 100 µM | > 100 µM | – | – | – | – | – | – | – | – | – | –
3 | CCOc1cc(/C=C/C(=O)CC(=O)/C=C/c2ccc(OC(=O)CNCCN(CC)CC)c(OCC)c2)ccc1OC(=O)CNCCN(CC)CC | 15.9 µM | 3.83 µM | 16.3 µM | > 100 µM | 9.64 µM | 4.56 µM | 1.63 µM | 6.43 µM | 6.08 µM | 24.1 µM | 3.81 | 2190 | 1970 | 1440 | 2.08 | 3.46 | 4.35 | 1.98 | 1.96 | 313
4 | CC(=O)Nc1sccc1S(=O)(=O)c1ccc(Cl)cc1 | > 100 µM | > 100 µM | > 100 µM | > 100 µM | > 100 µM | > 100 µM | > 100 µM | > 100 µM | > 100 µM | > 100 µM | – | – | – | – | – | – | – | – | – | –
5 | Cc1cc(C)c(S(=O)(=O)N(CCCN)OCCCN)c(C)c1 | > 100 µM | > 100 µM | > 100 µM | > 100 µM | > 100 µM | > 100 µM | > 100 µM | > 100 µM | > 100 µM | > 100 µM | – | – | – | – | – | – | – | – | – | –
6 | C=C(Cl)C(Cl)(CBr)CCC(Br)C(C)(C)Cl (stereo unspecified) | 9.99 µM and 7.54 µM and 16.7 µM | 27.2 µM and 26.9 µM and 53.1 µM | 24.4 µM and 10.8 µM and > 92.9 µM | 7.93 µM and 4.62 µM and 31.9 µM | 3.13 µM and 1.97 µM and 9.92 µM | 8.93 µM and 3.51 µM and 24.1 µM | 61.2 µM and 26.5 µM and 33.9 µM | 5.25 µM and 5.08 µM and 9.16 µM | 2.92 µM and 5.94 µM and 27.2 µM | 7.18 µM and 4.48 µM and 33.2 µM | – | 802 | – | – | – | – | – | – | – | –
7 | CCN(CCCl)c1cc(CN(C)C)cc(NC(=O)c2cc(C(=O)Nc3cc(CN(C)C)cc(N(CC)CCCl)c3)n(C)n2)c1 | 1.8 µM | 0.38 µM | 1.12 µM | 2.8 µM | 1.56 µM | 2.81 µM | > 100 µM | 1.52 µM | 4.06 µM | 32.3 µM | – | – | – | – | – | – | – | – | – | –
8 | O=C([O-])C1([n+]2c(-c3ccccc3)cc(-c3ccccc3)cc2-c2ccccc2)CC1 | > 100 µM | > 100 µM | > 100 µM | > 100 µM | > 100 µM | > 100 µM | > 100 µM | > 100 µM | – | > 100 µM | – | – | – | – | – | – | – | – | – | –
9 | CC(=O)O[C@H]1C[C@@H](OC(C)=O)[C@@](C)(O)[C@@H]2[C@@H](OC(C)=O)[C@@]3(O)[C@H](/C=C(/CCl)[C@H]4O[C@H]4[C@@H](OC(C)=O)[C@@]12C)OC(=O)[C@@H]3C | > 25 µM | > 25 µM | > 25 µM | > 25 µM | > 25 µM | > 25 µM | – | > 25 µM | > 25 µM | > 25 µM | – | – | – | – | – | – | – | – | – | –
10 | CC(=O)OC1CC[C@@]2(C)C(=CC[C@@H]3[C@@H]2CC[C@]2(C)C(OC(C)=O)[C@H](n4ccnc4)C[C@@H]32)C1 (stereo partly specified) | > 100 µM | > 100 µM | 86.3 µM | 46.6 µM | > 100 µM | 31.5 µM | 36.7 µM | > 100 µM | > 100 µM | > 100 µM | – | – | – | – | – | – | – | – | – | –
11 | COc1ccc2c(C(=O)c3c(C)n(CCN4CCOCC4)c4ccccc34)cccc2c1 | > 100 µM | > 100 µM | > 100 µM | > 100 µM | 55.4 µM | > 100 µM | > 100 µM | 40.6 µM | 80.2 µM | 55.9 µM | – | – | – | – | – | – | – | – | – | –
12 | CCCCC1Cc2cc(OC)ccc2-c2n1c1cc(OC)ccc1[n+]2C (stereo unspecified) (tested in a mixture with another compound) | > 45.7 µM | 6.61 µM | > 62.8 µM | 20.7 µM | 6.09 µM | 25.8 µM | 12.1 µM | – | 20.6 µM | > 100 µM | – | – | – | – | – | – | – | – | – | –
13 | COc1cccc(-c2[nH]c3cc4c(cc3c(=O)c2C(=O)O)OCO4)c1 | > 100 µM | > 100 µM | > 100 µM | > 100 µM | – | > 100 µM | > 100 µM | – | > 100 µM | 47.3 µM | – | – | – | – | – | – | – | – | – | –
14 | CC(=O)Oc1ccc2cc(Oc3ccccc3)c(=O)oc2c1 | > 100 µM | > 100 µM | – | > 100 µM | > 100 µM | > 100 µM | > 100 µM | > 100 µM | > 100 µM | – | – | – | – | – | – | – | – | – | – | –
15 | c1csc(C(NC2=NCCO2)C2CC2)c1 (stereo unspecified) | > 100 µM | > 100 µM | – | > 100 µM | – | – | > 100 µM | > 100 µM | > 100 µM | – | – | – | – | – | – | – | – | – | – | –
16 | O=C(/C=C\c1ccc(/C=C/C(=O)Nc2cccc(C3=NCCCN3)c2)cc1)Nc1cccc(C2=NCCCN2)c1 | > 100 µM | > 100 µM | > 100 µM | > 100 µM | – | > 100 µM | – | – | – | > 100 µM | – | – | – | – | – | – | – | – | – | –
17 | CCN(CC)C(=S)SSCCO | > 100 µM | – | 18 µM | 27.9 µM | 37.1 µM | 29.3 µM | – | 34.7 µM | 30.3 µM | 32.5 µM | 79.9 | 16000 | – | 4210 | 15.3 | 17.1 | 14.7 | 19 | 15.8 | –
18 | O=c1[nH]c(=S)[nH]c2c(C3OC(CO)C(O)C3O)nsc12 (stereo unspecified) | > 100 µM | > 100 µM | > 100 µM | > 100 µM | > 100 µM | > 100 µM | – | > 100 µM | – | > 100 µM | – | – | – | – | – | – | – | – | – | –
19 | COc1cccc(/C=N/[N-]C(N)=O)c1[O-].[OH3+].[Pd+2] | > 100 µM | > 100 µM | > 100 µM | > 100 µM | > 100 µM | > 100 µM | > 100 µM | – | – | – | – | – | – | – | – | – | – | – | – | –
20 | CC(=O)N1c2ccccc2[C@H]2CCc3c([nH]c4ccccc34)[C@H]21 | 67.3 µM | 44.3 µM | 30.9 µM | – | 52.3 µM | 31.1 µM | – | 57.7 µM | 31.5 µM | > 100 µM | – | – | – | – | – | – | – | – | – | –
21 | Fc1ccc(C(OCCN2CC3CC2CN3)c2ccc(F)cc2)cc1 (stereo unspecified) | – | > 100 µM | > 100 µM | > 100 µM | > 100 µM | 52.3 µM | 73 µM | > 100 µM | > 100 µM | > 100 µM | – | – | – | – | – | – | – | – | – | –
